Data taken from ChEMBL document CHEMBL2346573, “Probing the role of the vancomycin e-ring aryl chloride: selective divergent synthesis and evaluation of alternatively substituted E-ring analogues” (2013).
Values after ≈ are worked out from the molar mass of the structure shown.

What was measured:
[1] = Binding affinity to N,N'-Ac2-L-Lys-D-Ala-D-Ala (unknown origin)
Staphylococcus aureus [2] = experiment: Antimicrobial activity against vancomycin-sensitive Staphylococcus aureus ATCC 25923 after 24 hrs by microtiter plate assay; format: functional; settings: ATCC 25923, 24 h
Enterococcus faecalis [3] = experiment: Antimicrobial activity against VanB vancomycin-resistant Enterococcus faecalis ATCC 51299 after 24 hrs by microtiter plate assay; format: functional; settings: ATCC 51299, 24 h
[4] = Ratio of MIC for VanB vancomycin-resistant Enterococcus faecalis ATCC 51299 to MIC for vancomycin-sensitive Staphylococcus aureus ATCC 25923; format: functional
Enterococcus faecalis [5] = experiment: Antimicrobial activity against VanA vancomycin-resistant Enterococcus faecalis BM4166; format: functional
Staphylococcus aureus [6] = experiment: Antimicrobial activity against Staphylococcus aureus ATCC 25923; format: functional
Enterococcus faecalis [7] = experiment: Antimicrobial activity against VanB vancomycin-resistant Enterococcus faecalis ATCC 51299; format: functional

Structure (SMILES)	Ka [1]	MIC (Staphylococcus aureus [2])	MIC (Enterococcus faecalis [3])	Ratio [4]	MIC (Enterococcus faecalis [5])	MIC (Staphylococcus aureus [6])	MIC (Enterococcus faecalis [7])
CN[C@H](CC(C)C)C(=O)N[C@H]1C(=O)N[C@@H](CC(N)=O)C(=O)N[C@H]2C(=O)N[C@H]3C(=O)N[C@H](C(=O)N[C@H](C(=O)O)c4cc(O)cc(O)c4-c4cc3ccc4O)[C@H](O)c3ccc(c(Cl)c3)Oc3cc2cc(c3O)Oc2ccc(cc2O)[C@H]1O	0.53 ×10⁵ /M	5 µg/mL (≈ 4.44 µM)	40 µg/mL (≈ 35.5 µM)	–	–	–	–
CN[C@H](CC(C)C)C(=O)N[C@H]1C(=O)N[C@@H](CC(N)=O)C(=O)N[C@H]2C(=O)N[C@H]3C(=O)N[C@H](C(=O)N[C@H](C(=O)OC)c4cc(OC)cc(OC)c4-c4cc3ccc4OC)[C@H](O)c3ccc(c(Cl)c3)Oc3cc2cc(c3OC)Oc2ccc(cc2C#N)[C@H]1O	1.1 ×10⁵ /M	2.5 µg/mL (≈ 2.08 µM)	5 µg/mL (≈ 4.15 µM)	–	–	–	–
CN[C@H](CC(C)C)C(=O)N[C@H]1C(=O)N[C@@H](CC(N)=O)C(=O)N[C@H]2C(=O)N[C@H]3C(=O)N[C@H](C(=O)N[C@H](C(=O)O)c4cc(O)cc(O)c4-c4cc3ccc4O)[C@H](O)c3ccc(c(Cl)c3)Oc3cc2cc(c3O)Oc2ccc(cc2)[C@H]1O	0.68 ×10⁵ /M	5 µg/mL (≈ 4.51 µM)	80 µg/mL (≈ 72.1 µM)	–	–	–	–
CN[C@H](CC(C)C)C(=O)N[C@H]1C(=O)N[C@@H](CC(N)=O)C(=O)N[C@H]2C(=O)N[C@H]3C(=O)N[C@H](C(=O)N[C@H](C(=O)OC)c4cc(OC)cc(OC)c4-c4cc3ccc4OC)[C@H](O)c3ccc(c(Cl)c3)Oc3cc2cc(c3OC)Oc2ccc(cc2N(C)C)[C@H]1O	0.34 ×10⁵ /M	5 µg/mL (≈ 4.09 µM)	10 µg/mL (≈ 8.18 µM)	–	–	–	–
CN[C@H](CC(C)C)C(=O)N[C@H]1C(=O)N[C@@H](CC(N)=O)C(=O)N[C@H]2C(=O)N[C@H]3C(=O)N[C@H](C(=O)N[C@H](C(=O)OC)c4cc(OC)cc(OC)c4-c4cc3ccc4OC)[C@H](O)c3ccc(c(Cl)c3)Oc3cc2cc(c3OC)Oc2ccc(cc2O)[C@H]1O	0.88 ×10⁵ /M	5 µg/mL (≈ 4.18 µM)	5 µg/mL (≈ 4.18 µM)	1	–	–	–
N[C@H]1C(=O)N[C@@H]2Cc3ccc(c(Cl)c3)Oc3cc4cc(c3O)Oc3ccc(cc3Cl)[C@@H](O)[C@@H]3NC(=O)[C@H](NC(=O)[C@@H]4NC(=O)[C@@H](NC2=O)c2cc(O)cc(c2)Oc2cc1ccc2O)c1ccc(O)c(c1)-c1c(O)cc(O)cc1[C@@H](C(=O)O)NC3=O [TEICOPLANIN AGLYCON]	–	–	–	–	> 100 µg/mL	1.6 µg/mL (≈ 1.33 µM)	25 µg/mL (≈ 20.9 µM)
COC(=O)[C@H]1NC(=O)[C@H]2NC(=O)[C@H](NC(=O)[C@@H]3NC(=O)[C@H]4NC(=O)[C@@H](Cc5ccc(c(Cl)c5)Oc5cc3cc(c5OC)Oc3ccc(cc3Cl)[C@H]2O)NC(=O)[C@H](N)c2ccc(OC)c(c2)Oc2cc(OC)cc4c2)c2ccc(OC)c(c2)-c2c(OC)cc(OC)cc21	–	–	–	–	> 100 µg/mL	3.2 µg/mL (≈ 2.47 µM)	3.2 µg/mL (≈ 2.47 µM)
CN[C@H](CC(C)C)C(=O)N[C@H]1C(=O)N[C@@H](CC(N)=O)C(=O)N[C@H]2C(=O)N[C@H]3C(=O)N[C@H](C(=O)N[C@H](C(=O)OC)c4cc(OC)cc(OC)c4-c4cc3ccc4OC)[C@H](O)c3ccc(c(Cl)c3)Oc3cc2cc(c3OC)Oc2ccc(cc2C(=O)OC)[C@H]1O	1 ×10⁵ /M	2.5 µg/mL (≈ 2.02 µM)	10 µg/mL (≈ 8.08 µM)	–	–	–	–
CN[C@H](CC(C)C)C(=O)N[C@H]1C(=O)N[C@@H](CC(N)=O)C(=O)N[C@H]2C(=O)N[C@H]3C(=O)N[C@H](C(=O)N[C@H](C(=O)OC)c4cc(OC)cc(OC)c4-c4cc3ccc4OC)[C@H](O)c3ccc(c(Cl)c3)Oc3cc2cc(c3OC)Oc2ccc(cc2B(O)O)[C@H]1O	0.23 ×10⁵ /M	5 µg/mL (≈ 4.09 µM)	10 µg/mL (≈ 8.17 µM)	–	–	–	–
CN[C@H](CC(C)C)C(=O)N[C@H]1C(=O)N[C@@H](CC(N)=O)C(=O)N[C@H]2C(=O)N[C@H]3C(=O)N[C@H](C(=O)N[C@H](C(=O)OC)c4cc(OC)cc(OC)c4-c4cc3ccc4OC)[C@H](O)c3ccc(c(Cl)c3)Oc3cc2cc(c3OC)Oc2ccc(cc2Br)[C@H]1O	1.1 ×10⁵ /M	2.5 µg/mL (≈ 1.99 µM)	5 µg/mL (≈ 3.97 µM)	–	–	–	–
CN[C@H](CC(C)C)C(=O)N[C@H]1C(=O)N[C@@H](CC(N)=O)C(=O)N[C@H]2C(=O)N[C@H]3C(=O)N[C@H](C(=O)N[C@H](C(=O)O)c4cc(O)cc(O)c4-c4cc3ccc4O)[C@H](O)c3ccc(c(Cl)c3)Oc3cc2cc(c3O)Oc2ccc(cc2Cl)[C@H]1O [VANCOMYCIN AGLYCON]	1.4 ×10⁵ /M	1.25 µg/mL (≈ 1.09 µM)	40 µg/mL (≈ 35 µM)	–	> 100 µg/mL	0.8 µg/mL (≈ 0.699 µM)	> 100 µg/mL
CN[C@H](CC(C)C)C(=O)N[C@H]1C(=O)N[C@@H](CC(N)=O)C(=O)N[C@H]2C(=O)N[C@H]3C(=O)N[C@H](C(=O)N[C@H](C(=O)OC)c4cc(OC)cc(OC)c4-c4cc3ccc4OC)[C@H](O)c3ccc(c(Cl)c3)Oc3cc2cc(c3OC)Oc2ccc(cc2Cl)[C@H]1O	1.3 ×10⁵ /M	1.25 µg/mL (≈ 1.03 µM)	2.5 µg/mL (≈ 2.06 µM)	–	50 µg/mL (≈ 41.2 µM)	1.25 µg/mL (≈ 1.03 µM)	2.5 µg/mL (≈ 2.06 µM)
CN[C@H](CC(C)C)C(=O)N[C@H]1C(=O)N[C@@H](CC(N)=O)C(=O)N[C@H]2C(=O)N[C@H]3C(=O)N[C@H](C(=O)N[C@H](C(=O)O)c4cc(O)cc(O)c4-c4cc3ccc4O)[C@H](O)c3ccc(c(Cl)c3)Oc3cc2cc(c3O[C@@H]2O[C@H](CO)[C@@H](O)[C@H](O)[C@H]2O[C@H]2C[C@](C)(N)[C@H](O)[C@H](C)O2)Oc2ccc(cc2Cl)[C@H]1O [VANCOMYCIN]	–	1.25 µg/mL (≈ 0.863 µM)	120 µg/mL (≈ 82.8 µM)	–	> 100 µg/mL	–	120 µg/mL (≈ 82.8 µM)
CN[C@H](CC(C)C)C(=O)N[C@H]1C(=O)N[C@@H](CC(N)=O)C(=O)N[C@H]2C(=O)N[C@H]3C(=O)N[C@H](C(=O)N[C@H](C(=O)O)c4cc(O)cc(O)c4-c4cc3ccc4O)[C@H](O)c3ccc(c(Cl)c3)Oc3cc2cc(c3O)Oc2ccc(cc2Br)[C@H]1O	1.1 ×10⁵ /M	2.5 µg/mL (≈ 2.1 µM)	40 µg/mL (≈ 33.7 µM)	–	–	–	–
CN[C@H](CC(C)C)C(=O)N[C@H]1C(=O)N[C@@H](CC(N)=O)C(=O)N[C@H]2C(=O)N[C@H]3C(=O)N[C@H](C(=O)N[C@H](C(=O)OC)c4cc(OC)cc(OC)c4-c4cc3ccc4OC)[C@H](O)c3ccc(c(Cl)c3)Oc3cc2cc(c3OC)Oc2ccc(cc2C)[C@H]1O	1.2 ×10⁵ /M	2.5 µg/mL (≈ 2.09 µM)	5 µg/mL (≈ 4.19 µM)	–	–	–	–
CN[C@H](CC(C)C)C(=O)N[C@H]1C(=O)N[C@@H](CC(N)=O)C(=O)N[C@H]2C(=O)N[C@H]3C(=O)N[C@H](C(=O)N[C@H](C(=O)OC)c4cc(OC)cc(OC)c4-c4cc3ccc4OC)[C@H](O)c3ccc(c(Cl)c3)Oc3cc2cc(c3OC)Oc2ccc(cc2[N+](=O)[O-])[C@H]1O	0.097 ×10⁵ /M	> 40 µg/mL	> 40 µg/mL	–	–	–	–
CN[C@H](CC(C)C)C(=O)N[C@H]1C(=O)N[C@@H](CC(N)=O)C(=O)N[C@H]2C(=O)N[C@H]3C(=O)N[C@H](C(=O)N[C@H](C(=O)OC)c4cc(OC)cc(OC)c4-c4cc3ccc4OC)[C@H](O)c3ccc(c(Cl)c3)Oc3cc2cc(c3OC)Oc2ccc(cc2)[C@H]1O	0.71 ×10⁵ /M	5 µg/mL (≈ 4.24 µM)	5 µg/mL (≈ 4.24 µM)	1	–	–	–
CN[C@H](CC(C)C)C(=O)N[C@H]1C(=O)N[C@@H](CC(N)=O)C(=O)N[C@H]2C(=O)N[C@H]3C(=O)N[C@H](C(=O)N[C@H](C(=O)OC)c4cc(OC)cc(OC)c4-c4cc3ccc4OC)[C@H](O)c3ccc(c(Cl)c3)Oc3cc2cc(c3OC)Oc2ccc(cc2C(F)(F)F)[C@H]1O	1.2 ×10⁵ /M	2.5 µg/mL (≈ 2 µM)	20 µg/mL (≈ 16 µM)	8	–	–	–
CN[C@H](CC(C)C)C(=O)N[C@H]1C(=O)N[C@@H](CC(N)=O)C(=O)N[C@H]2C(=O)N[C@H]3C(=O)N[C@H](C(=O)N[C@H](C(=O)OC)c4cc(OC)cc(OC)c4-c4cc3ccc4OC)[C@H](O)c3ccc(c(Cl)c3)Oc3cc2cc(c3OC)Oc2ccc(cc2N=[N+]=[N-])[C@H]1O	1.2 ×10⁵ /M	1.25 µg/mL (≈ 1.02 µM)	5 µg/mL (≈ 4.1 µM)	–	–	–	–
CN[C@H](CC(C)C)C(=O)N[C@H]1C(=O)N[C@@H](CC(N)=O)C(=O)N[C@H]2C(=O)N[C@H]3C(=O)N[C@H](C(=O)N[C@H](C(=O)OC)c4cc(OC)cc(OC)c4-c4cc3ccc4OC)[C@H](O)c3ccc(c(Cl)c3)Oc3cc2cc(c3OC)Oc2ccc(cc2OC)[C@H]1O	1.2 ×10⁵ /M	2.5 µg/mL (≈ 2.07 µM)	5 µg/mL (≈ 4.13 µM)	–	–	–	–
CN[C@H](CC(C)C)C(=O)N[C@H]1C(=O)N[C@@H](CC(N)=O)C(=O)N[C@H]2C(=O)N[C@H]3C(=O)N[C@H](C(=O)N[C@H](C(=O)OC)c4cc(OC)cc(OC)c4-c4cc3ccc4OC)[C@H](O)c3ccc(c(Cl)c3)Oc3cc2cc(c3OC)Oc2ccc(cc2I)[C@H]1O	1.3 ×10⁵ /M	2.5 µg/mL (≈ 1.91 µM)	10 µg/mL (≈ 7.66 µM)	–	–	–	–
